The results in this text go back to ChEMBL document CHEMBL6078709, “Discovery of Cyclic Lipopeptides, Octaminomycins C and D, by Engineering LysR Transcriptional Regulator of Streptomyces sp” (J Nat Prod, 2024).

Assay type in all cases: functional, cell-based
In one test the test system is MDA-MB-231. The test is described as follows: Antiproliferative activity against human MDA-MB-231 cells assessed as inhibition of cell growth incubated for 72 hrs by sulforhodamine B assay. Conditions: MDA-MB-231, 72 h.
In a further test the test system is HUVEC. Kind of test: Antiangiogenic activity in human HUVEC cells assessed as inhibition of VEGF-induced tube formation incubated for 6 hrs by matrigel based inverted microscopic analysis.
The next test relates to SNU-638. The test is described as follows: Antiproliferative activity against human SNU-638 cells assessed as inhibition of cell growth incubated for 72 hrs by sulforhodamine B assay. Conditions: SNU-638, 72 h.
A further test deals with A549. The test is described as follows: Antiproliferative activity against human A549 cells assessed as inhibition of cell growth incubated for 72 hrs by sulforhodamine B assay. The following applies: A549, 72 h.
The subject of a further test is SK-HEP1. The test is described as follows: Antiproliferative activity against human SK-HEP1 cells assessed as inhibition of cell growth incubated for 72 hrs by sulforhodamine B assay. The following applies: SK-HEP1, 72 h.
For another test, the system named is HCT-116. The test is described as follows: Antiproliferative activity against human HCT-116 cells assessed as inhibition of cell growth incubated for 72 hrs by sulforhodamine B assay. Conditions: HCT-116, 72 h.

Positions of bridges follow the written chain, without caps; N, C: chain ends. Non-standard residues stand in square brackets, D forms with d. Residues, ends and D or L forms follow the SMILES beside them. *: point of attachment. NMeY = CN[C@@H](Cc1ccc(O)cc1)C(=O)O; Propionyl = CCC(=O)* Some results are limits rather than exact numbers.

`CCC(=O)N[C@@H]1C(=O)N[C@@H](Cc2ccccc2)C(=O)N[C@H](CC(C)C)C(=O)N[C@@H](C(C)C)C(=O)N2CCC[C@H]2C(=O)N[C@@H](CC(C)C)C(=O)N(C)[C@@H](Cc2ccccc2)C(=O)N2CCC[C@H]2C(=O)O[C@@H]1C`: the IC50 with MDA-MB-231 was 12 µM; in the test with HUVEC it was greater than 40 µM; in the test with SNU-638, greater than 20 µM; with A549, 12.3 µM; in the test with SK-HEP1, 13.1 µM; in the test on HCT-116, greater than 20 µM.

In the case of `CCC(=O)N[C@@H]1C(=O)N[C@@H](Cc2ccccc2)C(=O)N[C@H](CC(C)C)C(=O)N[C@@H](C(C)C)C(=O)N2CCC[C@H]2C(=O)N[C@@H](CC(C)C)C(=O)N(C)[C@@H](Cc2ccc(O)cc2)C(=O)N2CCCC[C@H]2C(=O)O[C@@H]1C`, the IC50 with MDA-MB-231 was greater than 20 µM; in the test on HUVEC it was greater than 40 µM; with SNU-638, 17.2 µM; in the test with A549, 15.5 µM; in the test on SK-HEP1 it was 17.4 µM; in the test on HCT-116 it was greater than 20 µM.

Take `CC(=O)N[C@@H]1C(=O)N[C@@H](Cc2ccccc2)C(=O)N[C@H](CC(C)C)C(=O)N[C@@H](C(C)C)C(=O)N2CCC[C@H]2C(=O)N[C@@H](CC(C)C)C(=O)N(C)[C@@H](Cc2ccc(O)cc2)C(=O)N2CCC[C@H]2C(=O)O[C@@H]1C` (Ac-TF[dL]VPL[NMeY]P; ester 1-C): the IC50 with MDA-MB-231 was greater than 20 µM; in the test with HUVEC, 28 µM; with SNU-638, 16.8 µM; in the test with A549, greater than 20 µM; in the test with SK-HEP1 it was 19 µM; with HCT-116, greater than 20 µM.

As for `CCC(=O)N[C@@H]1C(=O)N[C@@H](Cc2ccccc2)C(=O)N[C@H](CC(C)C)C(=O)N[C@@H](C(C)C)C(=O)N2CCC[C@H]2C(=O)N[C@@H](CC(C)C)C(=O)N(C)[C@@H](Cc2ccc(O)cc2)C(=O)N2CCC[C@H]2C(=O)O[C@@H]1C` (Propionyl-TF[dL]VPL[NMeY]P; ester 1-C), the half-maximal inhibitory concentration (IC50) with MDA-MB-231 is greater than 20 µM; in the test on HUVEC, greater than 40 µM; in the test on SNU-638, greater than 20 µM; with A549, greater than 20 µM; with SK-HEP1, greater than 20 µM; with HCT-116, greater than 20 µM.

Take `COc1cc([C@@H]2c3cc4c(cc3[C@@H](O[C@@H]3O[C@@H]5CO[C@@H](C)O[C@H]5[C@H](O)[C@H]3O)[C@H]3COC(=O)[C@H]23)OCO4)cc(OC)c1O` [ETOPOSIDE]: the IC50 was found to be 2.43 µM with MDA-MB-231; 1.96 µM in the test on SNU-638; 2.73 µM in the test with A549; 3.78 µM in the test on SK-HEP1; 3.16 µM with HCT-116.

Consider `CCN(CC)CCNC(=O)c1c(C)[nH]c(/C=C2\C(=O)Nc3ccc(F)cc32)c1C` [SUNITINIB], for which the IC50 in the test on HUVEC was found to be 3.5 µM.
